Where “and” joins values, the source holds several entries; their conditions need not be identical. Equal values may be shown once.
Tested on: 782815-120-R-J1-PDC complex spheroid viability
Assay: Anticancer human tumor 782815-120-R-J1-PDC patient-derived colon adenocarcinoma cell line growth inhibition [RAS]
Conditions: for viability, T/C: stronger effect = lower value
From the text: RAS pathway inhibitors in Combinations in Complex Spheroids
A high-throughput screen of multi-cell type tumor spheroids was designed to identify active combinations of RAS pathway inhibitors and targeted small molecules. Complex spheroids include a stromal component modeled by human endothelial cells (HUVEC) and fibroblasts modeled by human mesenchymal stem cells (MSCs). The concentration ranges selected for each drug and investigational agent were based upon clinically achievable concentrations if the clinical Cmax of the agent was known.
Compounds. The drugs and investigational agents: abemaciclib (NSC768073), cobimetinib (NSC768068), divarasib (GDC6063, NSC841802), docetaxel (NSC628503), GDC-1971 (RLY-1971, NSC841576), gemcitabine (NSC613327), inavolisib (NSC800729), ipatasertib (NSC767898), KB-0742 (NSC834161), MRTX-1133 (NSC836407), osimertinib (NSC779217), RMC-4630 (NSC839698), RMC-6236 (NSC851965), RMC-6291 (NSC852671), Ro-3306 (NSC812927), sapanisertib (NSC764658), SN-38 (NSC673596), staurosporine (NSC755774), SY5609 (NSC837396), and tovorafenib (DAY101, NSC766906), were obtained from the National Cancer Institute (NCI) Developmental Therapeutics Program Chemical Repository. The FDA-approved anticancer drug set is available from the NCI Developmental Therapeutics Program. […] The stock solutions were prepared in dimethyl sulfoxide (DMSO, Sigma-Aldrich, St. Louis, MO, cat. D2650) at 800-fold the tested concentration and stored at -70 degrees C prior to their use. All drugs and investigational agents were tested over a range starting from a high concentration at or near the clinical Cmax and decreasing in half-log increments. If the clinical Cmax for an agent had not been determined, the highest concentration tested was 10 microM.
Cell Culture. All cells were maintained in an incubator at 37 degrees C and 5% CO2 with 95% humidity. The PDC lines were cultured according to standard operating procedures established by the NCI PDMR. All PDCs were thawed and cultured in Matrigel-coated flasks prepared with a working solution of 1X Ham's F-12 nutrient mix, without supplementation (Invitrogen, Waltham, MA, cat. 11765054), 100 U/mL penicillin-streptomycin (Invitrogen, cat. 15140122), and 2.5% Matrigel (Corning Inc., Corning, NY, cat. 354248) for the first three passages. The 362531-283-R-J2-PDC and 782815-120-R-J1-PDC lines were cultured in 6C/Colon 1B media, which includes advanced DMEM/F-12 (Thermo Fisher Scientific, cat. 12634028), 10 mM HEPES (Thermo Fisher Scientific, cat. 15630080), 1X GlutaMAX supplement (Thermo Fisher Scientific, cat. 35050061), 0.1 mg/mL primocin (InvivoGen, San Diego, CA, cat. ant-pm-2), 10% defined fetal bovine serum, heat inactivated (HyClone Laboratories Inc., Logan, UT, cat. SH30070.03HI), 50% L-WRN conditioned media (ATCC, cat. CRL-3276), 1.25 mM N-Acetyl-L-cysteine (Sigma-Aldrich, cat. A9165), 10 mM nicotinamide (Sigma-Aldrich, cat. N0636), 1X B-27 supplement (Thermo Fisher Scientific, cat. 17504044), 1X N-2 supplement (Thermo Fisher Scientific, cat. 17502048), 50 ng/mL human EGF (Thermo Fisher Scientific, cat. PHG0311), and 10 microM Y-27632 dihydrochloride (Tocris Bioscience, cat. 1254). The K12877-001-R-J1-PDC line was cultured in 6I media, which includes all 6C/Colon 1B media plus 10 ng/mL human FGF-10 (PeproTech, cat. 100-26), 1 ng/mL human FGF-2 (PeproTech, cat. 100-18B), 1 µM prostaglandin E2 (Tocris Bioscience, cat. 2296), […] hydrocortisone (Sigma-Aldrich, cat. H4001), and […] bovine insulin (Sigma-Aldrich, cat. I6634). The K86415-001-R-J1-PDC line was cultured in 6D media, which includes all 6C/Colon 1B media components minus the L-WRN conditioned media. The 485176-168-R4-J1-PDC was cultured in PANC media, which includes all 6C/Colon 1B media plus 100 ng/mL human FGF-10 (PeproTech, cat. 100-26), 500 nM SB-431542 (Selleckchem, cat. S1067), and 10 nM gastrin (Tocris Bioscience, cat. 3006). […]

[1] = compound alone, run of 07/15/2024
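Also: spheroids exposed to compounds for 7 days before reading.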
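For viability, T/C in this document: 100% = DMSO vehicle control viability.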

Compound	viability, T/C (compound 0.0316 µM)	viability, T/C (compound 0.1 µM)	viability, T/C (compound 0.316 µM)	viability, T/C (compound 1 µM)	viability, T/C (compound 3.16 µM)	viability, T/C (compound 10 µM)	IC50 [1] [µM]	viability, T/C (compound 0.00316 µM)	viability, T/C (compound 0.01 µM)	IC50 (curve of compound)	viability, T/C (compound 0.000316 µM)	viability, T/C (compound 0.001 µM)	viability, T/C (compound 0.000949 µM)	viability, T/C (compound 0.003 µM)	viability, T/C (compound 0.03 µM)	viability, T/C (compound 0.0949 µM)	viability, T/C (compound 0.3 µM)
C#Cc1c(F)ccc2cc(O)cc(-c3ncc4c(N5CC6CCC(C5)N6)nc(OCC56CCCN5CC(F)C6)nc4c3F)c12 (stereo unspecified)	104% [middle of 8 runs]	103% [middle of 8 runs]	103% [middle of 8 runs]	97.9% [middle of 8 runs]	101% [middle of 8 runs]	95% [middle of 8 runs]	> 10										
C=CC(=O)N1CCN(c2nc(OCC3CCCN3C)nc3c(F)c(-c4nc(N)cc(C)c4C(F)(F)F)c(Cl)cc23)C(C)C1 (stereo unspecified)	102% [middle of 12 runs]	99.2% [middle of 12 runs]	102% [middle of 12 runs]	96.7% [middle of 12 runs]			> 1	99.4% [middle of 12 runs]	102% [middle of 12 runs]	> 1 µM							
C=CC(=O)Nc1cc(Nc2nccc(-c3cn(C)c4ccccc34)n2)c(OC)cc1N(C)CCN(C)C	96.3% [middle of 4 runs]	94.3% [middle of 4 runs]	94.1% [middle of 4 runs]	91.1% [middle of 4 runs]				93.8% and 93.6% (2×) and 98%	99.9% [middle of 4 runs]	> 1 µM							
CC(C)NCC(C(=O)N1CCN(c2ncnc3c2C(C)CC3O)CC1)c1ccc(Cl)cc1 (stereo unspecified)	106% [middle of 4 runs]	98.9% [middle of 4 runs]	104% (2×) and 101% and 91.7%	96% [middle of 4 runs]	101% [middle of 4 runs]	104% [middle of 4 runs]				> 10 µM							
CC(C)n1nc(-c2ccc3oc(N)nc3c2)c2c(N)ncnc21	95.5% [middle of 4 runs]	83.7% [middle of 4 runs]						93.8% [middle of 4 runs]	90.3% [middle of 4 runs]	> 0.1 µM	98.8% [middle of 4 runs]	97.7% [middle of 4 runs]					
CC(Nc1ccc2c(c1)OCCn1cc(N3C(=O)OCC3C(F)F)nc1-2)C(N)=O (stereo unspecified)	102% (2×) and 103% and 93.2%	97.5% [middle of 4 runs]	90.9% [middle of 4 runs]	87.2% [middle of 4 runs]	100% [middle of 4 runs]	93% [middle of 4 runs]				> 10 µM							
CC1(C)CCC(Nc2ncc(C(F)(F)F)c(-c3c[nH]c4c(P(C)(C)=O)c(C#N)ccc34)n2)CN1 (stereo unspecified)										> 0.3 µM and 0.0766 µM and 0.223 µM			107% [middle of 4 runs]	85% [middle of 4 runs]	65.3% [middle of 4 runs]	59.4% [middle of 4 runs]	57.8% [middle of 4 runs]
CC1(O)CCCC1n1c(=O)c(C(F)F)cc2cnc(NC3CCN(S(C)(=O)=O)CC3)nc21 (stereo unspecified)	70.6% [middle of 4 runs]	66.3% [middle of 4 runs]	64.3% [middle of 4 runs]	70% [middle of 4 runs]	63.5% [middle of 4 runs]	27% [middle of 4 runs]				4.69 µM [middle of 4 runs]							

— PubChem BioAssay AID2060887 (Molecular Pharmacology Branch, DTP, NCI, 2025)
